This note sets out measurements from US20240059691A1 (KALVISTA PHARMACEUTICALS LIMITED, priority 2020, published 2024).

Chain of Human Factor XIIa (P00748 373-615): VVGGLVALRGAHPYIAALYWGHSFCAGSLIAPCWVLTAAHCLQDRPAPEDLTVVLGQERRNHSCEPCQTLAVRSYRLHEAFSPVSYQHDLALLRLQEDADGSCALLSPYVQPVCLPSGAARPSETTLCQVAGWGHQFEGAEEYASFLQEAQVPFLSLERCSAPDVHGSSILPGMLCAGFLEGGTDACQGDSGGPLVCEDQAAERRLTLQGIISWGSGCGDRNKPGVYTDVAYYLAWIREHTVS

For this assay, the target named is Human Factor XIIa (Homo sapiens (Human), UniProt P00748). As to the kind of experiment: Determination of FXIIa inhibition (fluorogenic substrate H-DPro-Phe-Arg-AFC, IC50 assay). It counts as biochemical. To be noted: substrate H-DPro-Phe-Arg-AFC at Km, 25° C.; class scale A-G. The procedure:
Determination of FXIIa Inhibition
In vitro inhibition of Factor XIIa was determined using an IC50 assay based on standard literature methods (see e.g Baeriswyl et al., ACS Chem. Biol., 2015, 10 (8) 1861; Bouckaert et al., European Journal of Medicinal Chemistry 110 (2016) 181). Human Factor XIIa (Enzyme Research Laboratories) was incubated at 25° C. with the fluorogenic substrate H-DPro-Phe-Arg-AFC (Peptide Protein Science) and various concentrations of the test compound. Protease activity was measured by monitoring the accumulation of liberated fluorescence from the substrate over 5 min at 25° C. The linear rate of fluorescence increase per minute was expressed as percentage (%) activity. The Km for the cleavage of the substrate by FXIIa was determined by standard transformation of the Michaelis-Menten equation. The compound inhibitor assays were performed at substrate Km concentration. IC50 values were calculated as the concentration of inhibitor giving 50% inhibition (IC50) of the uninhibited enzyme activity (100%).
For the compound `Cc1cc(N2CCn3c(nnc3C(F)(F)F)C2C)ncc1CNc1ccnc2[nH]c(Cl)cc12` (racemic) [Example 1314, 2-Chloro-N-((4-methyl-6-(8-methyl-3-(trifluoromethyl)-5,6-dihydro-[1,2,4]triazolo[4,3-a]pyrazin-7(8H)-yl)pyridin-3-yl)methyl)-1H-pyrrolo[2,3-b]pyridin-4-amine], the 50% inhibitory concentration (IC50) (in general, the concentration that inhibits the measured activity by half) fell in the range of 0.01 to 0.1 µM.

`Nc1nccc2cc(NCc3ccc(OCC4CCn5ccnc5C4)nc3)ccc12` (single isomer, unassigned) [Example 1023, 6-N-({6-[(7R*)-5H,6H,7H,8H-imidazo[1,2-a]pyridin-7-ylmethoxy]pyridin-3-yl}methyl)isoquinoline-1,6-diamine] registered an IC50 of 0.1 to 0.3 µM.

For `Nc1nccc2cc(NCc3ccc(OC[C@H]4CCn5ccnc5C4)nc3)ccc12` (single isomer, unassigned) [Example 1024, 6-N-({6-[(7S*)-5H,6H,7H,8H-imidazo[1,2-a]pyridin-4-yl}-ylmethyl)isoquinoline-1,6-diamine], the IC50 was 0.1 to 0.3 µM.

In turn, `Cc1cc(N2CCn3c(nnc3C(F)(F)F)C2C)ncc1CNc1ccnc2[nH]c(Cl)cc12` (single isomer, unassigned) [Example 1315, (R*)-2-Chloro-N-((4-methyl-6-(8-methyl-3-(trifluoromethyl)-5,6-dihydro-[1,2,4]triazolo[4,3-a]pyrazin-7(8H)-yl)pyridin-3-yl)methyl)-1H-pyrrolo[2,3-b]pyridin-4-amine] returned an IC50 of 10 to 40 µM.

`Cc1cc(N2CCn3c(nnc3C(F)(F)F)C2C)ncc1CNc1ccnc2[nH]c(Cl)cc12` (single isomer, unassigned) [Example 1316, (S*)-2-Chloro-N-((4-methyl-6-(8-methyl-3-(trifluoromethyl)-5,6-dihydro-[1,2,4]triazolo[4,3-a]pyrazin-7(8H)-yl)pyridin-3-yl)methyl)-1H-pyrrolo[2,3-b]pyridin-4-amine]: the IC50 lay within 0.01 to 0.1 µM.

`CCC1c2nnc(C(F)(F)F)n2CCN1c1cc(C)c(CNc2cccc3c(N)nccc23)cn1` (single isomer, unassigned) [Example 1320, (R*)-N5-((6-(8-ethyl-3-(trifluoromethyl)-5,6-dihydro-[1,2,4]triazolo[4,3-a]pyrazin-7(8H)-yl)-4-methylpyridin-3-yl)methyl)isoquinoline-1,5-diamine] returned an IC50 of 10 to 40 µM.

For `CCC1c2nnc(C(F)(F)F)n2CCN1c1cc(C)c(CNc2cccc3c(N)nccc23)cn1` (single isomer, unassigned) [Example 1321, (S*)-N5-((6-(8-ethyl-3-(trifluoromethyl)-5,6-dihydro-[1,2,4]triazolo[4,3-a]pyrazin-7(8H)-yl)-4-methylpyridin-3-yl)methyl)isoquinoline-1,5-diamine], the IC50 was in the range of 0.1 to 0.3 µM.

Turning to `COCC1c2nnc(C(F)(F)F)n2CCN1c1cc(C)c(CNc2cccc3c(N)nccc23)cn1` (single isomer, unassigned) [Example 1343, (S*)-N5-((6-(8-(methoxymethyl)-3-(trifluoromethyl)-5,6-dihydro-[1,2,4]triazolo[4,3-a]pyrazin-7(8H)-yl)-4-methylpyridin-3-yl)methyl)isoquinoline-1,5-diamine], the IC50 was in the range of 3 to 10 µM.

Take `COCC1c2nnc(C(F)(F)F)n2CCN1c1cc(C)c(CNc2cccc3c(N)nccc23)cn1` (single isomer, unassigned) [Example 1344, (R*)-N5-((6-(8-(methoxymethyl)-3-(trifluoromethyl)-5,6-dihydro-[1,2,4]triazolo[4,3-a]pyrazin-7(8H)-yl)-4-methylpyridin-3-yl)methyl)isoquinoline-1,5-diamine]: the IC50 lay within 0.01 to 0.1 µM.

For `Cc1cc(N2CCn3c(nnc3C(F)(F)F)C2C)cnc1CNc1cccc2c(N)nccc12` (single isomer, unassigned) [Example 1345, (R*)-N5-((3-methyl-5-(8-methyl-3-(trifluoromethyl)-5,6-dihydro-[1,2,4]triazolo[4,3-a]pyrazin-7(8H)-yl)pyridin-2-yl)methyl)isoquinoline-1,5-diamine], the half-maximal inhibitory concentration (IC50) was in the range of 0.01 to 0.1 µM.

`Cc1cc(N2CCn3c(nnc3C(F)(F)F)C2C)cnc1CNc1cccc2c(N)nccc12` (single isomer, unassigned) [Example 1346, (S*)-N5-((3-methyl-5-(8-methyl-3-(trifluoromethyl)-5,6-dihydro-[1,2,4]triazolo[4,3-a]pyrazin-7(8H)-yl)pyridin-2-yl)methyl)isoquinoline-1,5-diamine] gave an IC50 of 1 to 3 µM.

In turn, `Nc1nccc2cc(NCc3ccnc(OC[C@@H]4CCn5ccnc5C4)c3)ccc12` (single isomer, unassigned) [Example 4412, 6-N-({2-[(7R*)-5H,6H,7H,8H-imidazo[1,2-a]pyridin-7-ylmethoxy]pyridin-4-yl}methyl)isoquinoline-1,6-diamine] had a concentration for half-maximal inhibition (IC50) of 0.1 to 0.3 µM.

`CN1CCN(Cc2ccc(CNc3ccc4c(N)nccc4c3)cc2)CC1` [Example 1007, 6-N-({4-[(4-methylpiperazin-1-yl)methyl]phenyl}methyl)isoquinoline-1,6-diamine] returned a concentration for half-maximal inhibition (IC50) of 0.3 to 1 µM.

As for `Nc1nccc2cc(NCc3ccc(OCc4ccncc4)nc3)ccc12` [Example 1014, 6-N-{[6-(pyridin-4-ylmethoxy)pyridin-3-yl]methyl}isoquinoline-1,6-diamine], the IC50 was in the range of 3 to 10 µM.

On to `CN1CCC(COc2ccc(CNc3ccc4c(N)nccc4c3)cn2)CC1=O` (stereo not drawn) [Example 1015, 4-{[(5-{[(1-aminoisoquinolin-6-yl)amino]methyl}pyridin-2-yl)oxy]methyl}-1-methylpiperidin-2-one], for which the IC50 was in the range of 0.3 to 1 µM.

`Nc1nccc2cc(NCc3ccc(OCC4CCNCC4)nc3)ccc12` [Example 1016, 6-N-{[6-(piperidin-4-ylmethoxy)pyridin-3-yl]methyl}isoquinoline-1,6-diamine] came in with an IC50 of 0.1 to 0.3 µM.

In the case of `CC(C)(O)CN1CCC(COc2ccc(CNc3ccc4c(N)nccc4c3)cn2)CC1` [Example 1017, 1-(4-(((5-(((1-aminoisoquinolin-6-yl)amino)methyl)pyridin-2-yl)oxy)methyl)piperidin-1-yl)-2-methylpropan-2-ol], the IC50 lay in the range of 0.3 to 1 µM.

For `CN1CCC(COc2ccc(CCc3ccc4c(N)nccc4c3)cn2)CC1` [Example 1018, 6-(2-(6-((1-methylpiperidin-4-yl)methoxy)pyridin-3-yl)ethyl)isoquinolin-1-amine], the IC50 lay in the range of 0.3 to 1 µM.

With `CN1CCC(COc2ccc(CCc3cccc4c(N)nccc34)cn2)CC1` [Example 1019, 5-(2-{6-[(1-methylpiperidin-4-yl)methoxy]pyridin-3-yl}ethyl)isoquinolin-1-amine], the IC50 is 3 to 10 µM.

In turn, `CN1CCC(COc2ccc(CNc3cnc4[nH]cc(Cl)c4c3)cn2)CC1` [Example 1020, 3-chloro-N-((6-((1-methylpiperidin-4-yl)methoxy)pyridin-3-yl)methyl)-1H-pyrrolo[2,3-b]pyridin-5-amine] registered a half-maximal inhibitory concentration (IC50) of 1 to 3 µM.

Compound `CN1CCC(COc2ccc(CNc3ccc4c(N)ncnc4c3)cn2)CC1` [Example 1021, N7-((6-((1-methylpiperidin-4-yl)methoxy)pyridin-3-yl)methyl)quinazoline-4,7-diamine] registered an IC50 of 10 to 40 µM.

`CN1CCC(COc2ccc(CNc3cccc4c(N)ncnc34)cn2)CC1` [Example 1022, N8-[[6-[(1-methyl-4-piperidyl)methoxy]-3-pyridyl]methyl]quinazoline-4,8-diamine] yielded an IC50 of 10 to 40 µM.

In the case of `Cn1ccnc1CCCOc1ccc(CNc2ccc3c(N)nccc3c2)cn1` [Example 1025, 6-N-({6-[3-(1-methylimidazol-2-yl)propoxy]pyridin-3-yl}methyl)isoquinoline-1,6-diamine], the IC50 lay in the range of 0.3 to 1 µM.

`CN1CCC(COc2ccc(CNc3ccc4cncc(CO)c4c3)cn2)CC1` [Example 1026, (6-(((6-((1-Methylpiperidin-4-yl)methoxy)pyridin-3-yl)methyl)amino)isoquinolin-4-yl)methanol]: the IC50 lay within 10 to 40 µM.

Compound `COc1nc(OCC2CCN(C)CC2)ccc1CNc1ccc2c(N)nccc2c1` [Example 1027, N6-((2-methoxy-6-((1-methylpiperidin-4-yl)methoxy)pyridin-3-yl)methyl)isoquinoline-1,6-diamine] returned an IC50 of 0.1 to 0.3 µM.

Compound `Nc1nccc2cc(NCc3ccc(OCC4CCn5cc(C(F)(F)F)nc5C4)nc3)ccc12` (stereo not drawn) [Example 1028, N6-((6-((2-(trifluoromethyl)-5,6,7,8-tetrahydroimidazo[1,2-a]pyridin-7-yl)methoxy)pyridin-3-yl)methyl)isoquinoline-1,6-diamine] displayed an IC50 of 1 to 3 µM.

`Nc1nccc2cc(NCc3ccc(OCCCn4ccnc4)nc3)ccc12` [Example 1031, 6-N-({6-[3-(imidazol-1-yl)propoxy]pyridin-3-yl}methyl)isoquinoline-1,6-diamine] returned an IC50 of 1 to 3 µM.

In turn, `CN1CCC(CCOc2ccc(CNc3ccc4c(N)nccc4c3)cn2)CC1` [Example 1032, 6-N-({6-[2-(1-methylpiperidin-4-yl)ethoxy]pyridin-3-yl}methyl)isoquinoline-1,6-diamine] came in with an IC50 of 0.3 to 1 µM.

`Cn1ccnc1CCCNc1ncc(CNc2ccc3c(N)ncc(Cl)c3c2)cn1` [Example 1038, 4-chloro-6-N-[(2-{[3-(1-methylimidazol-2-yl)propyl]amino}pyrimidin-5-yl)methyl]isoquinoline-1,6-diamine]: the IC50 lay in the range of 3 to 10 µM.

With `Nc1ncc(Cl)c2cc(NCc3ccc(OCC4CCn5ccnc5C4)nc3)ccc12` (stereo not drawn) [Example 1041, 4-Chloro-N6-[[6-(5,6,7,8-tetrahydroimidazo[1,2-a]pyridin-7-ylmethoxy)-3-pyridyl]methyl]isoquinoline-1,6-diamine], the IC50 lay in the range of 0.3 to 1 µM.
